Laboratory results reported in US9566312B2, “Cyclic peptides and use as medicines” (priority 2012, dated 2017).
Like-named read-outs stand apart in the source and are kept apart here. Starred links: 1 amine or outer side, 2 acyl side, 3 side chain; linkers in the order of their positions; H or OH if unused. Non-standard residues stand in square brackets, D forms with d. Residues, ends and D or L forms follow the SMILES beside them. NMeAbu(3S-Me,4-OC2H4Mor) = CN[C@H](C(=O)O)[C@H](C)COCCN1CCOCC1; X16 = C[C@H](CN1CCN(S(C)(=O)=O)CC1)[C@@H](C(=O)[*:2])N(C)[*:1]; X7 = C[C@H](COCCN1CCS(=O)(=O)CC1)[C@@H](C(=O)[*:2])N(C)[*:1]; X12 = C[C@@H](CN1CCN(C2CCC2)CC1)[C@@H](C(=O)[*:2])N(C)[*:1]; X5 = C[C@H](COC(=O)N1CCN(C)CC1)[C@@H](C(=O)[*:2])N(C)[*:1]; MeBmt = C/C=C/C[C@@H](C)[C@@H](O)[C@H](NC)C(=O)O; X2 = COCC[C@@H](C)[C@@H](C(=O)[*:2])N(C)[*:1]; X77 = COC[C@H](C)[C@@H](C(=O)[*:2])N(C)[*:1]; NMeL = CN[C@@H](CC(C)C)C(=O)O; NMeV = CN[C@H](C(=O)O)C(C)C; dNMeA = CN[C@H](C)C(=O)O; Abu = CC[C@H](N)C(=O)O

Legend:
[1] = biological target: Human MRP2 (Homo sapiens (Human), UniProt Q92887); assay: MRP2 transporter vesicle assay; type: in vitro ADME
Chain of Human MRP2 (Q92887 whole entry): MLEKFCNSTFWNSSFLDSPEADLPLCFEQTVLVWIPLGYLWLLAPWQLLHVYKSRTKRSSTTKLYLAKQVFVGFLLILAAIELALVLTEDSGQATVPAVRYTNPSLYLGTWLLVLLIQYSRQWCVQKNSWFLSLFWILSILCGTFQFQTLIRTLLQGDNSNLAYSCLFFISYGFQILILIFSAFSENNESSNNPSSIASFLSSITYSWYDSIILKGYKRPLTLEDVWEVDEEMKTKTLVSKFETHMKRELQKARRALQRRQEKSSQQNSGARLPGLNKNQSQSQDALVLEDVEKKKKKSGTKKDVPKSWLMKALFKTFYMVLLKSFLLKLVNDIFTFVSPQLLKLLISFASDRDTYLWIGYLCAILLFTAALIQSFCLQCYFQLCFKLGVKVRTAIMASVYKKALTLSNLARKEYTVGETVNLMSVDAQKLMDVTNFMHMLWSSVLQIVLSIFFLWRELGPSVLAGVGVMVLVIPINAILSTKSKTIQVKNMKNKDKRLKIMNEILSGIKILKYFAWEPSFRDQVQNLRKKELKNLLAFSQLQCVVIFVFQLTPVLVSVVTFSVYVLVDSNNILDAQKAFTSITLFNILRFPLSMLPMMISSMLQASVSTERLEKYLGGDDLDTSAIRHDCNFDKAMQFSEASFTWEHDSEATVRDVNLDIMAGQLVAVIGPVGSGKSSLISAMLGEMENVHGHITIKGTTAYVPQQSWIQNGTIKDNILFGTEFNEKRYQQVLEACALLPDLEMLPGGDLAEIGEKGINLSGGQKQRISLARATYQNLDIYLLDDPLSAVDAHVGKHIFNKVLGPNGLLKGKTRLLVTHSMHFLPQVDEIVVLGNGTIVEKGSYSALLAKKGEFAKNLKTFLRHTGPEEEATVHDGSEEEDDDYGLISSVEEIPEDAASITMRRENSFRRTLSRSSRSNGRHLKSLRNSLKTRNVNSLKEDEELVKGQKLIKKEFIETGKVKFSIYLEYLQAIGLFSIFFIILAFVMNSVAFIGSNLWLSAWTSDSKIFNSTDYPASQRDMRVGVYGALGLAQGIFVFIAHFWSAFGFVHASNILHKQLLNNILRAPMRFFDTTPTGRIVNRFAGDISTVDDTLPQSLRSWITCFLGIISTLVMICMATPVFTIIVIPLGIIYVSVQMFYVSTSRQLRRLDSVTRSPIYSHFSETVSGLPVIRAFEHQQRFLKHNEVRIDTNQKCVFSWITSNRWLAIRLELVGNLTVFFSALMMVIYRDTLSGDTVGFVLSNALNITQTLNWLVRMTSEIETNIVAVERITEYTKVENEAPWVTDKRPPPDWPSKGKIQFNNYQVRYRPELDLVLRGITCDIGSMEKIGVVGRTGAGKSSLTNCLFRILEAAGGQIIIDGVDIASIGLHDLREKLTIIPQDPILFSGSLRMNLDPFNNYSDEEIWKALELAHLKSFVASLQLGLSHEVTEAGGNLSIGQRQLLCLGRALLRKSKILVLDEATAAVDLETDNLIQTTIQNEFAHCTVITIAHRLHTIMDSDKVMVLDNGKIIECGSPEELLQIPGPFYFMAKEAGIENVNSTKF
Method: Method 4: Measuring Hepatic Transporter Interactions […] […] MRP2 Assay: Human MRP2 inhibition was tested using a BD Gentest Transporter Vesicle Assay Kit. Inside-out vesicles were prepared from insect Sf9 cells infected with baculovirus expressing hMRP2. […] The percent remaining of ATP dependent uptake activity was calculated as uptake activity in the presence of inhibitor divided by the uptake activity in the absence of inhibitor.

[2] = biological target: CYP3A4 (Homo sapiens (Human), UniProt P08684); assay: Time-dependent inhibition of CYP3A4;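 further: Two-step in vitro assay, kobs derived from residual CYP3A4 activity versus preincubation time per concentration, then kinact and KI by nonlinear fit of kobs against concentration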
Chain of CYP3A4 (P08684 whole entry): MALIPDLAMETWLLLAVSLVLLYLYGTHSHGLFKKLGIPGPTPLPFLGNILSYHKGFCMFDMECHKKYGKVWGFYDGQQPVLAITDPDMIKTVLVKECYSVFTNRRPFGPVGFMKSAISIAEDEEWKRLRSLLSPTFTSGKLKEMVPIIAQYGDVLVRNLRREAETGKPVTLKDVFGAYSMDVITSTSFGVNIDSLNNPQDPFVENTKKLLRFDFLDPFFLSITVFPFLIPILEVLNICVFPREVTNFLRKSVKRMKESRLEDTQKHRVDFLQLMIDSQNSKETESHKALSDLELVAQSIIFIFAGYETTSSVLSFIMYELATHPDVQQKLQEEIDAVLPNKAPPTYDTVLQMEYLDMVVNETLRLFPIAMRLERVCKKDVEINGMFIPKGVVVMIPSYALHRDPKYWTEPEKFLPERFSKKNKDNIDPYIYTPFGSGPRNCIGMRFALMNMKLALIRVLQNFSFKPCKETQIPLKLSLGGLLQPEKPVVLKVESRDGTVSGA

[3] = biological target: organic anion transporting polypeptide 1B1 (OATP1B1) (Homo sapiens (Human), UniProt Q9Y6L6); assay: OATP assay in CHO-OATP1B1 cells;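 further: inhibition of probe substrate uptake into the cells, ten minutes exposure, accumulated substrate read by fluorescence once cells were lysed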
Chain of organic anion transporting polypeptide 1B1 (OATP1B1) (Q9Y6L6 whole entry): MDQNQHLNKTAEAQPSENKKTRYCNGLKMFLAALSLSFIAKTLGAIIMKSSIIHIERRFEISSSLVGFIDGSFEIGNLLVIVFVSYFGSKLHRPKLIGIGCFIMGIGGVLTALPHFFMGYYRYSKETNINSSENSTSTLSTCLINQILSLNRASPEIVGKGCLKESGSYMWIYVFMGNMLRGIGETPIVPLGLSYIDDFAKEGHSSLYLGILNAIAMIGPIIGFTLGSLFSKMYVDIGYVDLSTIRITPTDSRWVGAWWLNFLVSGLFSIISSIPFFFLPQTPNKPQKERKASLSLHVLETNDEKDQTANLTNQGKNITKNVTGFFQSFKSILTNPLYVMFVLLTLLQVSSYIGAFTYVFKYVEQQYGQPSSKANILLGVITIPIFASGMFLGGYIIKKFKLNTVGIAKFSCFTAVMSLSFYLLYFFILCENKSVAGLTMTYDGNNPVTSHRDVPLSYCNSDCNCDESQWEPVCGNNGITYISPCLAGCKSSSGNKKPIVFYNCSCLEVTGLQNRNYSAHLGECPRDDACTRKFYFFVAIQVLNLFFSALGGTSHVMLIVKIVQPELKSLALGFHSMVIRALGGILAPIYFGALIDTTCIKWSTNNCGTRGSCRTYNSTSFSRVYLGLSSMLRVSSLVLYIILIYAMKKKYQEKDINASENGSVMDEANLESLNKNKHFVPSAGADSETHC

[4] = biological target: cyclophilin A (CypA) (Homo sapiens (Human), UniProt P62937); assay: Inhibitor binding to cyclophilin proteins by SPR, CypA; parameters: unit not given here; details: 1:1 binding model;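 further: Single-cycle kinetics on a Biacore T200, compound injected at several concentrations for 1 min each at 50 µL/min, then 10 min dissociation, in HEPES pH 7.4 buffer with 3% DMSO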
Chain of cyclophilin A (CypA) (P62937 whole entry): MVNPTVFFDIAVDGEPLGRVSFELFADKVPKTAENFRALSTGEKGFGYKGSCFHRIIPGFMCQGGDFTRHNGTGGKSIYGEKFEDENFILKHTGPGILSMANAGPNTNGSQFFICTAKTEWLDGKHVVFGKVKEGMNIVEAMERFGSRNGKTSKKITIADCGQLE

[5] = biological target: cyclophilin B (CypB) (Homo sapiens (Human), UniProt P23284); assay: Inhibitor binding to cyclophilin proteins by SPR, CypB; parameters: unit not given here; details: 1:1 binding model
Chain of cyclophilin B (CypB) (P23284 34-216): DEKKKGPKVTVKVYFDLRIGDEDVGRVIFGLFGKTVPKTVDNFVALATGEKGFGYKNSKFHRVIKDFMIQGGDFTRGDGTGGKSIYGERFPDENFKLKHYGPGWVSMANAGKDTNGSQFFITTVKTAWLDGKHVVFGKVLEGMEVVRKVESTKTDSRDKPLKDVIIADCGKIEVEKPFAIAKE
In short: (§1)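 Running buffer: 10 mM HEPES pH 7.4, 150 mM NaCl, 0.05% P20, 3% DMSO, with compound present. Capture of avi-tagged mono-biotinylated cyclophilin; single-cycle series, 1 min contact, 10 min dissociation. Rates and affinity fitted to a 1:1 interaction model.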

[6] = biological target: CypF (Homo sapiens (Human), UniProt P30405); assay: Inhibitor binding to cyclophilin proteins by SPR, CypF; details: 1:1 binding model
Chain of CypF (P30405 30-207): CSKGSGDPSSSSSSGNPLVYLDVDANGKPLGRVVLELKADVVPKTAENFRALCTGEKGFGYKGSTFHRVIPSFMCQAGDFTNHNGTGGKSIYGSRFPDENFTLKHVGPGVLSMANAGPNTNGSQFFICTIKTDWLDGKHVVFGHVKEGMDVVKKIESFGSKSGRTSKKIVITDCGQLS
In short: as §1

[7] = tested on: peripheral blood mononuclear cells (PBMC); assay: Anti-proliferative or immunosuppressive activity, BrdU incorporation in PHA-stimulated PBMC; type: cell-based; details: PHA 3 μg/ml, 60 hour compound treatment; read-out: EMV PBMC IC50
In short: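 BrdU ELISA read-out of DNA synthesis in freshly isolated PBMCs (two donors, 30,000 cells/well, X-VIVO 15). T-cell proliferation triggered with phytohemagglutinin at 3 μg/ml.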

[8] = tested on: genotype 1b subgenomic HCV replicon in Huh7.5 cells; type: cell-based, hepatitis C virus; details: read-out: RPLN-1b IC50
In short: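 Replicon inhibition read as renilla luciferase signal versus DMSO controls after 72 h incubation, in Huh7.5 cells harbouring a genotype 1b subgenomic replicon; medium phenol red-free DMEM lacking G418. CC50 determined in parallel via Cell Titer-Glo.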

[9] = genotype 1b replicon, 72 h incubation

SMILES | IC50 [1] [µM] | Ki [2] [µM] | IC50 [3] [µM] | CypA Kd [4] | CypB Kd [5] | CypF Kd [6] [nM] | IC50 [7] [µM] | IC50 [8, 9] [nM] | NIM TDI kinact/Ki ([2]; probe substrate midazolam) [µL/min/pmol] | IC50 [8] [nM]
C/C=C/C[C@@H](C)[C@@H](O)[C@H]1C(=O)N[C@@H](CC)C(=O)N(C)[C@H](C)C(=O)N(C)[C@@H]([C@H](C)COCCN2CCOCC2)C(=O)N[C@@H](C(C)C)C(=O)N(C)[C@@H](CC(C)C)C(=O)N[C@@H](C)C(=O)N[C@H](C)C(=O)N(C)[C@@H](CC(C)C)C(=O)N(C)[C@@H](CC(C)C)C(=O)N(C)[C@@H](C(C)C)C(=O)N1C [Compound 2.8.1, 3-[D-Ala]-4-[(2S,3S)-3-methyl-2-(methylamino)-4-(2-morpholinoethoxy)butanoyl]-cyclosporin] (cyclo(A[dA][NMeL][NMeL][NMeV][MeBmt][Abu][dNMeA][NMeAbu(3S-Me,4-OC2H4Mor)]V[NMeL])) | 23 | > 50 | 7.6 | 1.4 | 0.7 | 0.7 | – | – | – | –
C/C=C/C[C@@H](C)[C@@H](O)[C@H]1C(=O)N[C@@H](CC)C(=O)N(C)[C@H](C)C(=O)N(C)[C@@H]([C@H](C)COC)C(=O)N[C@@H](C(C)C)C(=O)N(C)[C@@H](CC(C)C)C(=O)N[C@@H](C)C(=O)N[C@H](C)C(=O)N(C)[C@@H](CC(C)C)C(=O)N(C)[C@@H](CC(C)C)C(=O)N(C)[C@@H](C(C)C)C(=O)N1C [Compound 2.1, 3-[D-Ala]-4-[(2S,3S)-4-methoxy-3-methyl-2-(methylamino)butanoyl]-cyclosporin] | 14 | > 50 | 5.1 | 2.05 | 1.45 | 1.3 | 10.6 | 29 | – | –
C/C=C/C[C@@H](C)[C@@H](O)[C@H]1C(=O)N[C@@H](CC)C(=O)N(C)[C@H](C)C(=O)N(C)[C@@H]([C@@H](C)COC)C(=O)N[C@@H](C(C)C)C(=O)N(C)[C@@H](CC(C)C)C(=O)N[C@@H](C)C(=O)N[C@H](C)C(=O)N(C)[C@@H](CC(C)C)C(=O)N(C)[C@@H](CC(C)C)C(=O)N(C)[C@@H](C(C)C)C(=O)N1C [Compound 2.2, 3-[D-Ala]-4-[(2S,3R)-4-methoxy-3-methyl-2-(methylamino)butanoyl]-cyclosporin] (cyclo(A[dA][NMeL][NMeL][NMeV][MeBmt][Abu][dNMeA][X77]V[NMeL])) | 15 | – | 1.9 | 1.7 | 0.8 | 0.8 | 12.6 | – | 0.0003 | 48
C/C=C/C[C@@H](C)[C@@H](O)[C@H]1C(=O)N[C@@H](CC)C(=O)N(C)[C@H](C)C(=O)N(C)[C@@H]([C@H](C)COC(=O)N2CCN(C)CC2)C(=O)N[C@@H](C(C)C)C(=O)N(C)[C@@H](CC(C)C)C(=O)N[C@@H](C)C(=O)N[C@H](C)C(=O)N(C)[C@@H](CC(C)C)C(=O)N(C)[C@@H](CC(C)C)C(=O)N(C)[C@@H](C(C)C)C(=O)N1C [Compound 2.5.9, 3-[D-Ala]-4-[(2S,3S)-3-methyl-2-(methylamino)-4-((4-methylpiperazine-1-carbonyl)oxy)butanoyl]-cyclosporin] (cyclo(A[dA][NMeL][NMeL][NMeV][MeBmt][Abu][dNMeA][X5]V[NMeL])) | 21 | > 50 | 6.7 | 0.8 | 0.5 | 0.3 | 17.7 | 90 | – | –
C/C=C/C[C@@H](C)[C@@H](O)[C@H]1C(=O)N[C@@H](CC)C(=O)N(C)[C@H](C)C(=O)N(C)[C@@H]([C@H](C)CCOC)C(=O)N[C@@H](C(C)C)C(=O)N(C)[C@@H](CC(C)C)C(=O)N[C@@H](C)C(=O)N[C@H](C)C(=O)N(C)[C@@H](CC(C)C)C(=O)N(C)[C@@H](CC(C)C)C(=O)N(C)[C@@H](C(C)C)C(=O)N1C [Compound 2.13, 3-[D-Ala]-4-[(2S,3R)-5-methoxy-3-methyl-2-(methylamino)pentanoyl]-cyclosporin] (cyclo(A[dA][NMeL][NMeL][NMeV][MeBmt][Abu][dNMeA][X2]V[NMeL])) | 13 | > 50 | 2.3 | 1.7 | 0.8 | 0.8 | 2.6 | 41 | – | –
C/C=C/C[C@@H](C)[C@@H](O)[C@H]1C(=O)N[C@@H](CC)C(=O)N(C)[C@H](C)C(=O)N(C)[C@@H]([C@H](C)CN2CCN(S(C)(=O)=O)CC2)C(=O)N[C@@H](C(C)C)C(=O)N(C)[C@@H](CC(C)C)C(=O)N[C@@H](C)C(=O)N[C@H](C)C(=O)N(C)[C@@H](CC(C)C)C(=O)N(C)[C@@H](CC(C)C)C(=O)N(C)[C@@H](C(C)C)C(=O)N1C [Compound 2.5.5, 3-[D-Ala]-4-[(2S,3R)-3-methyl-2-(methylamino)-4-(4-(methylsulfonyl)piperazin-1-yl)butanoyl]-cyclosporin] (cyclo(A[dA][NMeL][NMeL][NMeV][MeBmt][Abu][dNMeA][X16]V[NMeL])) | 13 | – | 4.8 | 3.3 | 1.9 | 1.7 | 2.8 | 66 | – | –
C/C=C/C[C@@H](C)[C@@H](O)[C@H]1C(=O)N[C@@H](CC)C(=O)N(C)[C@H](C)C(=O)N(C)[C@@H]([C@H](C)COCCOC(=O)N2CCN(C)CC2)C(=O)N[C@@H](C(C)C)C(=O)N(C)[C@@H](CC(C)C)C(=O)N[C@@H](C)C(=O)N[C@H](C)C(=O)N(C)[C@@H](CC(C)C)C(=O)N(C)[C@@H](CC(C)C)C(=O)N(C)[C@@H](C(C)C)C(=O)N1C (stereo in doubt) [Compound 2.9, 3-[D-Ala]-4-[(2S,3S)-3-methyl-2-(methylamino)-4-(2-((4-methylpiperazine-1-carbonyl)oxy)ethoxy)butanoyl]-cyclosporin] | 30 | > 50 | 8.7 | 0.9 | 0.5 | 0.4 | 13.3 | 58 | – | –
C/C=C/C[C@@H](C)[C@@H](O)[C@H]1C(=O)N[C@@H](CC)C(=O)N(C)[C@H](C)C(=O)N(C)[C@@H]([C@H](C)COCCN2CCS(=O)(=O)CC2)C(=O)N[C@@H](C(C)C)C(=O)N(C)[C@@H](CC(C)C)C(=O)N[C@@H](C)C(=O)N[C@H](C)C(=O)N(C)[C@@H](CC(C)C)C(=O)N(C)[C@@H](CC(C)C)C(=O)N(C)[C@@H](C(C)C)C(=O)N1C [Compound 2.8.2] (cyclo(A[dA][NMeL][NMeL][NMeV][MeBmt][Abu][dNMeA][X7]V[NMeL])) | 28 | – | 3 | 1.6 | 0.6 | 0.6 | – | – | – | –
C/C=C/C[C@@H](C)[C@@H](O)[C@H]1C(=O)N[C@@H](CC)C(=O)N(C)[C@H](C)C(=O)N(C)[C@@H]([C@@H](C)CN2CCN(C3CCC3)CC2)C(=O)N[C@@H](C(C)C)C(=O)N(C)[C@@H](CC(C)C)C(=O)N[C@@H](C)C(=O)N[C@H](C)C(=O)N(C)[C@@H](CC(C)C)C(=O)N(C)[C@@H](CC(C)C)C(=O)N(C)[C@@H](C(C)C)C(=O)N1C [Compound 2.17.3, 3-[D-Ala]-4[(2S,3S)-2-Amino-4-(4-cyclobutyl-piperazin-1-yl)-3-methyl-butanoyl]-cyclosporin] (cyclo(A[dA][NMeL][NMeL][NMeV][MeBmt][Abu][dNMeA][X12]V[NMeL])) | – | > 50 | 4 | 0.5 | 0.4 | 0.3 | 6.7 | 31 | – | –
